Like-named read-outs stand apart in the source and are kept apart here.
Assays:
human skin = experiment: Cumulative irritant patch test (RIPT, 21 days) in healthy participants; conditions: occlusive patch, healthy subjects
Source text: The objective of this study was to assess the primary irritancy potential of Compound A mesylate Topical Cream in human skin using a Repeat Insult Patch Testing (RIPT) over twenty-one (21) days.
This RIPT was an open-label, single-arm (cell), randomized, evaluator-blinded study wherein test products were applied under an occlusive dressing to the upper back or upper arm continuously and repeatedly to the same site for a period of 21 days. Three concentrations of The Cream described in Example 13 (0.1%, 0.03%, 0.01%) and Vehicle (Placebo Cream—0%) were applied to the skin of healthy subjects aged 18-70 with a Fitzpatrick Skin Type of I-III. In addition, one site was treated with 0.4 ml of 0.25% sodium lauryl sulfate (SLS) as a positive control and another site was treated with a plain Webril patch (cotton cloth) which served as a negative control. The total daily dose of Compound A received by each subject was 560 μg (0.4 ml of each of the three concentrations/3 different sites) or approximately 8 μg/kg. The evaluator graded the level of irritation for each test site at every study visit and was blinded as to the identity of the test products. The targeted sample size was at least 25 subjects (n=25) at completion.
Approximately 0.4 ml of each test material was spread uniformly onto a 15 mm diameter circular disc of non-absorbing cotton cloth (Webril) using micropipettes or plastic tuberculin syringes. The treated circular disc was applied to the designated skin site (see Randomization Section below) measuring 15 mm in diameter on the upper arm or upper back. In addition to the test products, one site was treated with 0.4 ml of 0.25% sodium lauryl sulfate (SLS) as a positive control and another site was treated with a plain Webril patch (cotton cloth) as a negative control. Each site was covered with an occlusive tape (Blenderm, 3M) and the entire patch fastened to the skin with Scanpor or Hypafix Tape to ensure intimate contact with the skin. The initial patch was applied on Day 0 and grading began on Day 1.
Subjects returned to the testing facility once daily (Monday to Friday). […] Subjects were questioned and assessed for adverse events as well as any changes in their health or concomitant medications at every study visit. […]
All patches were inspected at each study visit and adhesion issues were noted when present. Patch sites were inspected and irritant reactions provoked during the study were recorded daily (Monday-Friday). […]
The CII was calculated for each product as well as the positive and negative control sites. The CII is the ratio calculated by dividing the sum of the cumulative irritation scores (SCS) from all subjects by the number of subjects in the completed panel×the maximum tolerated score per patch site (3)×the number of grading assessments (15).

minipigs = experiment: Non-GLP 7-day intravenous study; type: in vivo, minipig; conditions: daily for 7 days
Description: To understand the relationship between potential Compound A mesylate exposure and toxicity (clinical observations), a non-GLP intravenous study was conducted. In this study, minipigs were administered up to 10 mg/kg daily for 7 days by intravenous administration to determine Compound A mesylate exposure and clinical observations. Overall, minipigs tolerated intravenous dose of up to 10 mg/kg/day for 7 seven days without any adverse clinical signs.

guinea pigs = experiment: Contact sensitization; type: in vivo, guinea pig
bovine cornea = experiment: Bovine corneal opacity and permeability (BCOP) assay
[1] = Dog oral toxicity studies (one-month); type: in vivo; conditions: in vivo, one-month study
Source text: (§1) Toxicity evaluation of Compound A mesylate salt has comprised range-finding and pivotal repeat dose dermal and oral toxicology studies in minipigs, rats and dogs. The dermal route of administration was chosen because it is the intended to be the human therapeutic route. As per International Council for Harmonisation (ICH) guidelines, the oral route was selected in rats and dogs to assess systemic toxicity and to support dermal administration. The minipig was selected as the species for formal dermal toxicology testing of Compound A mesylate salt.
(§2) The NOAEL for the one-month study was 2 mg/kg/day.

dogs = experiment: Dog oral toxicity studies (one-month); type: in vivo
Source text: as §1, §2

[2] = Solubility of Compound A mesylate salt Form B in excipients and buffers; type: physicochemical
Description: The solubility was determined visually. The approximate amount of drug dissolved was calculated as mg/g of compound soluble in each solvent tested.
The steps involved in performing the solubility study were as follows: • a) Label scintillation vials appropriately for each excipient that were tested. • b) Stir bar was placed in each vial and weighed the empty vial containing stir bar and cap with inert liner. Recorded the TARE weight. • c) Approximately 5.0 g of each excipient was weighed into the designated vial and approximately 5 mg of the API (Compound A mesylate salt) was added to into each vial. • d) All the closed vials were placed on a multi-position stir plate and allowed to mix for at least 15 minutes at ambient conditions. • e) Visually inspected to see if the API has completely dissolved. • f) If the API has dissolved, the last 3 steps were repeated. Additional API aliquots added to the mixture were recorded till saturation solubility reached. […] Stirring the solutions was continued overnight at ambient temperature to confirm solubility is maintained. • g) If API has not completely dissolved, continue stirring samples overnight at ambient conditions. • h) The final weight of the vial, cap, stir bar, and sample were recorded. • i) Further, the final observations were recorded as needed to document the observations.

Gottingen Minipigs = experiment: 28-day repeat dose dermal toxicity study; type: in vivo, minipig
Source text: as §1
(§3) To support dermal administration of Compound A mesylate, in addition to oral repeat-dose toxicity studies in rats and dogs, dermal toxicity studies in minipigs were conducted. A 28-day repeat dose toxicity study was conducted by dermal application of Compound A mesylate salt at doses in the range of 0.1 mg/kg to 1 mg/kg.
(§4) The 28-day dose toxicity study was initiated at doses in the range of 0.1 to 1.0 mg/kg.

[3] = 28-day repeat dose dermal toxicity study; type: in vivo, minipig; conditions: Gottingen, minipig, in vivo, topical or ocular; for Cmax / AUC(0-t): 1 mg/kg/day dermal, Day 28; for AUC(0-t): read-out: AUC0-Tlast
Source text: as §1, §3, §4

[4] = Drug excipient compatibility study (physical appearance, % label claim, total impurities); type: physicochemical
Description: The goal of the drug excipient compatibility study was to identify excipients that are incompatible with the Compound A mesylate salt (Form B), resulting in high impurity growth compared to the baseline (To). The compatibility of the compound in selected excipients was assessed by mixing the compound with individual excipients and placing the mixtures on stability studies for 2 or 4 weeks at 25° C./60% RH and 40° C./75% RH. If the compound was insoluble in any excipient, the sample was prepared by first dissolving Compound A mesylate salt in a solvent (purified water) and then mixing with the excipient in a 1:1 ratio. A stock solution of the Compound A mesylate salt in water (0.45% w/w) was used. The total level of impurities over 4 weeks at the two stability conditions were measured.
Physical appearance of Drug-Excipient mixture was evaluated visually, and the observations were recorded which are summarized in Table 2.
In summary, the compound was stable when mixed with the following chemicals: isopropyl myristate, ethanol, medium chain triglycerides, light mineral oil, cyclomethicone, white petrolatum, span 80, glycerin, sorbitol solution 70%, HPMC, HPC, and stearyl alcohol.

[5] = tested on: Primary human keratinocytes; experiment: Human primary keratinocytes proliferation assay (BrdU incorporation); type: cell-based; conditions: for IC50: Homo sapiens, Keratinocyte, read-out: calculated potency (IC50) to block cell proliferation
Description: Primary human keratinocytes (KMF112410A) were grown in 96-well plates and exposed to different concentration of Compound A mesylate salt, 0.1 nM to 100 μM, for 24 hours or 72 hours.
After 4 hours, the medium was removed and 100 μL of the Fixing/Denaturing solution (paraformaldehyde) was added to each well and allowed to incubate at room temperature for 30 minutes. After 30 minutes, the fixing solution was removed and 100 μl of the prepared 1× detection antibody (Cell Signaling Assay Kit, Catalogue No. 6813) was added to each well and allowed to incubate at room temperature for 1 hour. The plate was then washed 3 times with prepared wash buffer (details of wash buffer; PBS saline).
After washing, 100 μL of the prepared 1× Horseradish Peroxidase (HRP)-conjugated secondary antibody solution was added to each well and allowed to incubate at room temperature for 30 minutes. The plate was then washed 3 times with prepared wash buffer.
After washing the 100 μL 3,3′,5,5′-Tetramethylbenzidine (TMB) substrate was added to each well and incubated 30 minutes at room temperature. After 30 minutes, 100 μL of stop solution ([…]) was added to each well and the absorbance was read at 450 nm using a microplate Reader SpectraMax iD3 (Molecular Devices). The magnitude of the absorbance for the developed color is proportional to the quantity of BrdU incorporated into cells, which is a direct indication of cell proliferation, and negative control (50% supplemented keratinocyte growth medium alone) was used as reference to evaluate cell proliferation inhibition (levels <100%) or activation (levels >100%).

rabbits = experiment: Skin irritation (erythema and edema); type: in vivo, rabbit
[6] = One-month rat oral toxicity study; type: in vivo; conditions: in vivo, oral, for the myocardial findings
Source text: as §1
(§5) The NOAEL for these findings was 0.5 mg/kg/day.

rats = experiment: One-month rat oral toxicity study; type: in vivo
Source text: as §1, §5

TRKC = target: T1, TRKC (Homo sapiens, UniProt Q16288); experiment: TRKC activity in cell-based system overexpressing wild-type full-length receptor; conditions: cell-based systems overexpressing wild-type, human TRK receptors
T1 construct: in cell-based systems overexpressing wild-type, full-length, human TRK receptors; expressed in transfected cells
T1 sequence (Q16288 32-839): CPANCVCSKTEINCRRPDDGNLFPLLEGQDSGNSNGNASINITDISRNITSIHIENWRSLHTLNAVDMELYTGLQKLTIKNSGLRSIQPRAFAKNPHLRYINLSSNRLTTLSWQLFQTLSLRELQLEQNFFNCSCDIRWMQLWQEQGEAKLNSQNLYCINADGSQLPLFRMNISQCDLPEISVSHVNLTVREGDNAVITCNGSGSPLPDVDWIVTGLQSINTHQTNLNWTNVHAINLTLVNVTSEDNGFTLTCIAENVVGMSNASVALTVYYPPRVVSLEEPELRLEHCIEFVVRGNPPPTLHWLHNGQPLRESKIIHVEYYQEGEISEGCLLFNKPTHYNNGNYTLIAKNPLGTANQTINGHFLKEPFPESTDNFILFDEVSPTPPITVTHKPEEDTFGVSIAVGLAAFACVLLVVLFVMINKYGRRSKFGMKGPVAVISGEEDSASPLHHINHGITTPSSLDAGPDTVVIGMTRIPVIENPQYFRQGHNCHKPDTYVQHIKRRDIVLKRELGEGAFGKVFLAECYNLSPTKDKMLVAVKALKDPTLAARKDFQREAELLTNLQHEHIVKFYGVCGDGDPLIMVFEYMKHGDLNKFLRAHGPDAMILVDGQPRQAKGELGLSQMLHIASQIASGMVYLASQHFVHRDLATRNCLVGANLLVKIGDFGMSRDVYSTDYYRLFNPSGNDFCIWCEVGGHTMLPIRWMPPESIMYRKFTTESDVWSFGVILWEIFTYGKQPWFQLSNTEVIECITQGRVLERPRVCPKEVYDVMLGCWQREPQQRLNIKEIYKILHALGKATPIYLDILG
Source text: (§6) Compound A is a highly specific pan-TRK inhibitor with a mechanism of action that is competitive with the adenosine triphosphate (ATP) binding site of TRKA.

TRKA = target: T2, TRKA (Homo sapiens, UniProt P04629); experiment: TRKA inhibition in cells (IC50); type: cell-based; conditions: read-out: half maximal inhibitory concentration (IC50) for TRKA
T2 construct: host or cells: cells, not specified
T2 sequence (P04629 33-796): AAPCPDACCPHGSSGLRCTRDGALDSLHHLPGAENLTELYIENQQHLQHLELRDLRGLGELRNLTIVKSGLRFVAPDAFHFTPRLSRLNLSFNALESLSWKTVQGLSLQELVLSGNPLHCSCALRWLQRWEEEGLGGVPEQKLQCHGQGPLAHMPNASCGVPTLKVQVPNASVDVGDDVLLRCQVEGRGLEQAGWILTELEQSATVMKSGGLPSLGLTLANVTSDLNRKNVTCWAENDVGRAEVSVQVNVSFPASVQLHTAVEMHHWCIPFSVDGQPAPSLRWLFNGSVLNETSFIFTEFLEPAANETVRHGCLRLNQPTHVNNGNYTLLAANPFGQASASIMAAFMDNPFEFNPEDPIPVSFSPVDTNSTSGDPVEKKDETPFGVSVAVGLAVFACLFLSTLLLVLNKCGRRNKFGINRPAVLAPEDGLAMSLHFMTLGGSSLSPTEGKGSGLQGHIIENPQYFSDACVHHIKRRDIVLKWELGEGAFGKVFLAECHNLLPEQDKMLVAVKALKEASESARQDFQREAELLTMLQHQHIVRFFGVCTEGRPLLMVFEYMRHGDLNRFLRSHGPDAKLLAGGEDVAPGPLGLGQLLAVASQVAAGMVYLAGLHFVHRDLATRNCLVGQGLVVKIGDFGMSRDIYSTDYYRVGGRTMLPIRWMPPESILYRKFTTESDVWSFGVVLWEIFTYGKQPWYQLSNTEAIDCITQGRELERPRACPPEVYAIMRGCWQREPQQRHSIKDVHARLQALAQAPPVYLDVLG
Source text: as §6

TRKB = target: T3, TRKB (Homo sapiens, UniProt Q16620); experiment: TRKB activity in cell-based system overexpressing wild-type full-length receptor; conditions: cell-based systems overexpressing wild-type, human TRK receptors
T3 construct: in cell-based systems overexpressing wild-type, full-length, human TRK receptors; expressed in transfected cells
T3 sequence (Q16620 32-822): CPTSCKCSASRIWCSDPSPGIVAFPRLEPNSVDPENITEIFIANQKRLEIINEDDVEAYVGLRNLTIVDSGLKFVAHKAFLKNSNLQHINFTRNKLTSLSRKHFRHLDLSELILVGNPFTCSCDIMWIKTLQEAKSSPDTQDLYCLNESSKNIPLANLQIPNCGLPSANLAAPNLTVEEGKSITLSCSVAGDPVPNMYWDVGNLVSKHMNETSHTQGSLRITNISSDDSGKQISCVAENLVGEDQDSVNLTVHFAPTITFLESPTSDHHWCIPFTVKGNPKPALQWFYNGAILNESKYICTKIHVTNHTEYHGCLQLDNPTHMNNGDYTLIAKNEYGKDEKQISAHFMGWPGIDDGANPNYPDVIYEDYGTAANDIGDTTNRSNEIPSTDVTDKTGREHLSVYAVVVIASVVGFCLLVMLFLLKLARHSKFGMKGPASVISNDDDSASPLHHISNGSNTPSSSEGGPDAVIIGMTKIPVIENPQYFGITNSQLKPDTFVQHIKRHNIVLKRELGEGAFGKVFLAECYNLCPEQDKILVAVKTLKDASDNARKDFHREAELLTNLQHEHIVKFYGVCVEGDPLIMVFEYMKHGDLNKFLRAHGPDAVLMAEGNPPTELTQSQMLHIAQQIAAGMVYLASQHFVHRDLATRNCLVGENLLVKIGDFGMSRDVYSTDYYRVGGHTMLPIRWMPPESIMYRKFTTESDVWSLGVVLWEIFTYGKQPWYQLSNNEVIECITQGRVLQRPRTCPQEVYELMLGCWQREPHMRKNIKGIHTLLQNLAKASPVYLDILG
Source text: as §6

[7] = tested on: adults with recurrent glioblastoma multiforme (GBM); conditions: up to 60 mg daily; cited from earlier work
[8] = tested on: Primary human keratinocytes; conditions: at their respective concentration (Dox 1 μM) after 24 and 72 hours of exposure
Description: Cell death/apoptosis was determined by Propidium Iodide (PI) and Annexin V staining.
For the cell death/apoptosis, human primary neonatal keratinocytes were cultured (5,000 cells/well) in clear bottom 96-well plates overnight. The next morning, growth medium was removed and replaced with 50% supplemented keratinocyte growth medium containing compounds and controls.
After 24 or 72 hours treatment, 200 μL of the prepared 1:100 Annexin V (Biovision, catalog number K101) and PI in 1× binding buffer solution was added to each of the wells and allowed to incubate at room temperature for 5 minutes. Cells were then washed with DPBS (Dulbecco's Phosphate-Buffered Saline) and fixed for 30 minutes in 2% Paraformaldehyde (PFA). Following fixation, cells were washed 3× with 200 μL of DPBS. A final volume of 100 μL of DPBS were added to the wells. Quantification of Annexin V and PI were assessed using the Array Scan High Content Imaging System (ThermoFisher).
The signal quantified for Annexin V, an early apoptosis event marker (FIG. 5) and PI to assess cell death (apoptosis and necrosis) was compared to negative control (50% supplemented media) to determine the percentage of viability (FIG. 6).

[9] = T = 0 (Table 3a, 25° C./60% RH)
[10] = T = 0 (Table 3b, 40° C./75% RH)

CCCCCCCCCCCCOS(=O)(=O)[O-].[Na+] [0.25% Sodium Lauryl Sulfate, sodium lauryl sulfate]
Cumulative Irritation Index (CII) (human skin): 0.24 | Mean Cumulative Irritation Score (human skin): 10.89 | Mean Daily Score (human skin): 0.73 | Sum of Cumulative Scores (human skin): 294

CC(C)Oc1cc(-n2cnc3ccc(N[C@@H](C)c4ncc(F)cn4)nc32)n[nH]1.CS(=O)(=O)O [Compound A mesylate salt, N-[(1S)-1-(5-fluoropyrimidin-2-yl)ethyl]-3-(5-isopropoxy-1H-pyrazol-3-yl)-3H-imidazo[4,5-b]pyridin-5-amine mesylate]
tolerated intravenous dose without any adverse clinical signs (minipigs): up to 10 mg/kg/day | contact sensitization (guinea pigs): not considered to be contact sensitizers | ocular irritation (bovine cornea): did not induce ocular irritation | NOAEL at 1 month [1]: 2 mg/kg/day | effects on body weight, food consumption, clinical pathology, or histopathology (dogs): no compound-related effects | tolerability (dogs; episodes of emesis and soft/fluid feces): generally well tolerated | Solubility ([2]; in Ethanol, 24 hours at room temperature, visual): ≥6.61 mg/g | water solubility ([2]; in water): ~9.5 % w/w | Observation ([2]; solubility study in Citrate buffer (pH 5.6)): Aggregated | Observation ([2]; solubility study in Ethanol): Solubilized | Observation ([2]; solubility study in Phosphate buffer (pH 7.4)): Aggregated | tolerability of dermal application (Gottingen Minipigs; 0.1, 0.3, and 1 mg/kg/day for 28 consecutive days): well tolerated | systemic exposure after dermal administration compared to intravenous administration (Gottingen Minipigs; minipigs): significantly lower | NOAEL at 28 days ([3]; both sexes, dermal, 28 days): 1 mg/kg/day | Cmax ([3]; female, females): 2.52 ng/mL | AUC(0-t) ([3]; female, females): 37.2 ng·h/mL | Cmax ([3]; male, males): 3.03 ng/mL | AUC(0-t) ([3]; male, males): 32.6 ng·h/mL | % Label Claim [4, 9]: 99.9% | Total Impurities (%) [4, 9]: 0.00% | % Label Claim [4, 10]: 99.9% | Total Impurities (%) [4, 10]: 0.00% | % Label Claim ([4]; T = 2 weeks, 25° C./60% RH): 99.2% | Total Impurities (%) ([4]; T = 2 weeks, 25° C./60% RH): 0.00% | % Label Claim ([4]; T = 2 weeks, 40° C./75% RH): 99.7% | Oxidation Adjusted ([4]; T = 2 weeks, 40° C./75% RH): 0.00 | Total Impurities (%) ([4]; T = 2 weeks, 40° C./75% RH): 0.00% | % Label Claim ([4]; T = 4 weeks, 25° C./60% RH): 100.5% | Total Impurities (%) ([4]; T = 4 weeks, 25° C./60% RH): 0.00% | % Label Claim ([4]; T = 4 weeks, 40° C./75% RH): 99.1% | Oxidation Adjusted ([4]; T = 4 weeks, 40° C./75% RH): 0.00 | Total Impurities (%) ([4]; T = 4 weeks, 40° C./75% RH): 0.00% | IC50 ([5]; 24 hours): 1250 nM | IC50 ([5]; 72 hours): 97 nM | dose showing significant inhibition of proliferation ([5]; after 24 hours of treatment): ≥ 100 nM | dose showing significant inhibition of proliferation ([5]; after 72 h treatment): ≥ 10 nM | irritation (erythema and edema) (rabbits): non-irritant | NOAEL at 1 month [6]: 0.5 mg/kg/day | histopathological findings (rats): myocardial inflammation, fibrosis and increased plasma phosphate and Troponin I in a minority of animals | food consumption and body weight gain (rats; all dose levels): marked increase

CC(C)Oc1cc(-n2cnc3ccc(N[C@@H](C)c4ncc(F)cn4)nc32)n[nH]1 [Compound A, N-[(1S)-1-(5-fluoropyrimidin-2-yl)ethyl]-3-(5-isopropoxy-1H-pyrazol-3-yl)-3H-imidazo[4,5-b]pyridin-5-amine]
in-vitro activity against TRKC, concentration (TRKC): below 5 nM | IC50 (TRKA): 0.2 nM | in-vitro activity against TRKB, concentration (TRKB): below 5 nM | early efficacy signals in GBM patients [7]: No early efficacy signals

COC(=O)[C@@]1(O)C[C@H]2O[C@]1(C)n1c3ccccc3c3c4c(c5c6ccccc6n2c5c31)C(=O)NC4 [Compound K252a]
cell death (Annexin V / PI) versus negative control [8]: significant cell death
